Assay results reported in patent US20240294895A1, “ENZYMATIC COMPOSITIONS FOR CARBOHYDRATE ANTIGEN CLEAVAGE ON DONOR ORGANS, METHODS AND USES ASSOCIATED THEREWITH” (THE UNIVERSITY OF BRITISH COLUMBIA, priority 2018, published 2024).

Assays:
Format in all cases: biochemical
[1] = tested on: Flavonifractor plautii GalNAcDeacetylase FpGalNAcDeAc_D1min, mutant C99A; test: Cleavage of A antigen Type2tetra-MU by FpGalNAcDeAc_D1min C99A; conditions: pH 7.4, 37° C.
Protocol: (§1) kcat/KM parameter were determined for A antigen subtype 1/2/4tetra-MU at pH 7.4 at 37° C. Reactions (total volume of 100 μL) were performed in black 96-plate wells and as coupled assays in 100 mM NaH2PO4 (pH 7.4) with 12 nM FpGalNAcDeacetylase 0.1 mg/mL SpHex, BgaC (BgaA for subtype II), AfcA, at varying concentrations of substrate (25 μM, 20 μM, 15 μM, 10 μM, 7.5 μM, 5 μM). The reactions were run as a series of four with controls (no FpGalNAcDeacetylase) as duplicates. The fluorescence signal (365/435 nm) resulting from MU release by hydrolysis was monitored on a Synergy H1™ plate reader (BioTek™) and converted to concentration using MU standard concentration curves determined under identical reaction conditions. Initial rates (μM/s) were determined and plotted in Grafit™ 7.0 to determine the kcat/KM (s^−1*mM^−1) parameters.
(§2) Based on structural information (not shown) and sequence alignment (not shown) FpGalNAcDeAc_D1min and FpGalNase_truncA were mutated using the QuickChange™ protocol (Zhang 2004), utilizing the primers noted in TABLE B. The mutants were purified via NiNTA and HIC columns as described above. The structural integrity of all mutants was checked via CD spectroscopy; all tested enzymes were structurally similar to their wild-type. […]

[2] = tested on: Flavonifractor plautii GalNAcDeacetylase FpGalNAcDeAc_D1min, mutant C99S; test: Cleavage of A antigen Type2tetra-MU by FpGalNAcDeAc_D1min C99S; conditions: pH 7.4, 37° C.
Protocol: as §1, §2

[3] = tested on: Flavonifractor plautii GalNAcDeacetylase FpGalNAcDeAc_D1min, mutant D100N; test: Cleavage of A antigen Type2tetra-MU by FpGalNAcDeAc_D1min D100N; conditions: substrate depletion method for low-activity mutants
Protocol: kcat/KM parameter were determined for A antigen subtype 1/2/4tetra-MU at pH 7.4 at 37° C. […] The reactions were run as a series of four with controls (no FpGalNAcDeacetylase) as duplicates. The fluorescence signal (365/435 nm) resulting from MU release by hydrolysis was monitored on a Synergy H1™ plate reader (BioTek™) and converted to concentration using MU standard concentration curves determined under identical reaction conditions. […]
Based on structural information (not shown) and sequence alignment (not shown) FpGalNAcDeAc_D1min and FpGalNase_truncA were mutated using the QuickChange™ protocol (Zhang 2004), utilizing the primers noted in TABLE B. The mutants were purified via NiNTA and HIC columns as described above. The structural integrity of all mutants was checked via CD spectroscopy; all tested enzymes were structurally similar to their wild-type. For mutants with relatively low activity, reactions were carried out under the same conditions used for full kinetic determinations; however the substrate depletion method was used for determination of kcat/KM values as has been previously described (Vocadlo 2002). In brief: at low concentrations of substrate where [Substrate]<KM (equivalent to ˜⅕- 1/10 of Km) the kcat/KM value can be approximated upon non-linear fitting of the reaction time course to a first order curve and dividing by the enzyme concentration.

[4] = tested on: Flavonifractor plautii GalNAcDeacetylase FpGalNAcDeAc_D1min, mutant H252A; test: Cleavage of A antigen Type2tetra-MU by FpGalNAcDeAc_D1min H252A; conditions: substrate depletion method for low-activity mutants
Protocol: as §1, §2

[5] = tested on: Flavonifractor plautii GalNAcDeacetylase FpGalNAcDeAc_D1min, mutant H252F; test: Cleavage of A antigen Type2tetra-MU by FpGalNAcDeAc_D1min H252F; conditions: substrate depletion method for low-activity mutants
Protocol: as §1, with “Initial rates (μM/s) were determined and plotted in Grafit™ 7.0 to determine the kcat/KM (s^−1*mM^−1) parameters.” left out
as §2

[6] = tested on: Flavonifractor plautii GalNAcDeacetylase FpGalNAcDeAc_D1min, mutant Y315F; test: Cleavage of A antigen Type2tetra-MU by FpGalNAcDeAc_D1min Y315F; conditions: substrate depletion method for low-activity mutants
Protocol: as §1, §2

CC(=O)N[C@H]1[C@H](Oc2ccc3c(C)cc(=O)oc3c2)O[C@H](CO)[C@@H](O[C@@H]2O[C@H](CO)[C@H](O)[C@H](O[C@H]3O[C@H](CO)[C@H](O)[C@H](O)[C@H]3NC(C)=O)[C@H]2O[C@@H]2O[C@@H](C)[C@@H](O)[C@@H](O)[C@@H]2O)[C@@H]1O [A antigen Type2tetra-MU]
kcat/Km [1]: 2344.67 ± 96.63 M⁻¹ s⁻¹ | kcat/Km [2]: 1259.9 ± 41.52 M⁻¹ s⁻¹ | kcat/Km [3]: 1.22 ± 0.083 M⁻¹ s⁻¹ | kcat/Km [4]: 1.4 ± 0.2 M⁻¹ s⁻¹ | kcat/Km [5]: 0.5 ± 0.033 M⁻¹ s⁻¹ | kcat/Km [6]: 2.78 ± 0.65 M⁻¹ s⁻¹
